# US20250302974A1, “LECTIN-DRUG CONJUGATES” (UNICHEM LABORATORIES LIMITED, priority 2021, published 2025)
# Numbered stars: 1 amine (or outer) side, 2 acyl side, 3 side chain; on linkers, the order of the positions; unused ones are H or OH. Square brackets hold non-standard residues; d marks the D form. Peptide text beside a SMILES is read from it. * marks the point of attachment. Dolaproine = CO[C@@H]([C@@H]1CCCN1)[C@@H](C)C(=O)O; Hexanoyl(6-maleimido) = O=C1C=CC(=O)N1CCCCCC(=O)*; Dil = CC[C@H](C)[C@H](NC)[C@@H](CC(=O)O)OC; PABC = O=C(OCc1ccc(N[*:1])cc1)[*:2]; X1 = C[C@@H](N*)[C@@H](O)c1ccccc1; Cit = NC(=O)NCCC[C@H](N)C(=O)O; NMeV = CN[C@H](C(=O)O)C(C)C
# Key:
# [1] = target: Sclerotium rolfsii lectin recombinant variant Rec-2, SEQ ID NO: 2 (Agroathelia rolfsii, UniProt A0A0M3KL30); test: O-Glycan array binding study (94 glycans)
# [2] = test system: human urinary bladder cancer cell line (T-24); test: Cytotoxicity assay, cell titer glow luminescence, 72 h; assay type: cell-based; conditions: 72 h
# Protocol: (§1) T-24 Cell line were cultured in McCoy's 5a Medium Modified supplemented with 10% FBS and the PA-1 Cell line was cultured in EMEM Media supplemented with 10% FBS. The assay was performed by plating 5,000 cells/well and incubated at 37° C. overnight. […] Each concentration was added in triplicate and media-only wells used as a control. After incubation for 72 h cell titer glow (Promega) reagent (50 μL) was added to each well and the plates shaken for 5 mins and the luminescence was recorded. Percent viability was determined by dividing luminescence of the treated well by the non-treated well and multiplying by 100. Data was analysed using non-linear regression with a logarithmic scale.
# (§2) 5,000 cells/well were plated and incubated at 37° C. overnight. Conjugates/vehicle control dilutions were made in respective media and added to cells. Volume added: 50 uL to each well. Starting treatment concentration was 1 uM for Conjugate of formula 16 and 18, and control SEQ ID NO: 5 alone and 10% for vehicle control (1×PBS with 20% DMA) and then diluted 10-fold down for a total of 11 treatment dilutions. Each concentration was analysed in triplicates. Media-only wells was used as a control to calculate percent viability. Cell titer glow reagent (volume: 50 uL) was added to each well, the plate was shaken for 5 mins and the luminescence was recorded. Drug Treatment Time: 72 hours. Percent viability was calculated by dividing the luminescence signal obtained for each treated well by the untreated well (media-only control) and multiplying by 100.
# [3] = test system: ovarian cancer cell line (PA-1); test: as above; assay type: cell-based; conditions: 72 h
# Protocol: as §1, §2
# PBMC Normal = test: Cytotoxic effect by MTT assay, 48 h; conditions: for Percent cytotoxicity wrt control: PBMC, 48 h
# Protocol: (§3) Cells were treated with Test Items at various concentrations (0.0001 μM-10 μM) for 48 h. The cells corresponding to Positive Control group were treated with Doxorubicin at a concentration ranging from 0.1 μM-100 μM. The Untreated cells were used as Control. After 48 h of incubation, the effect of Test Items on cytotoxicity of cells was determined by MTT assay, the plates were taken out and 20 μl of 5 mg/m1 of MTT 3-(4,5-dimethythiazol-2-yl)-2,5-diphenyl tetrazolium bromide solution was added to all the wells. Cells were incubated for 3 h at 37° C. The supernatant was aspirated. 150 μl of DMSO was added to each well to dissolve formazan crystals. The absorbance of each well was then read at 540 nm using Synergy HT micro plate reader.
# (§4) The % Cytotoxicity was calculated using the formula:
# (§5) Where, X=Absorbance of cells treated with Test Item; R=Absorbance of Control cells (Untreated cells maintained in growth medium only).
# AGS Stomach = test: Cytotoxic effect by MTT assay, 48 h; conditions: AGS, 48 h
# Protocol: as §3, §4, §5
# (§6) Selectivity Index was calculated using the formula:
# (§7) SI=IC50 in Normal cell/IC50 in cancer cell.
# (§8) Activity scores of the Selective Index values were categorized as: • Not selective (SI value ≤1) • Moderately selective (1<SI value <5) • Selective (SI value ≥5)
# U251 MG Brain = test: Cytotoxic effect by MTT assay, 48 h; conditions: for Percent cytotoxicity wrt control: U251 MG, 48 h
# Protocol: as §3, §4, §5, §6, §7, §8
# PANC-1 Pancreatic = test: Cytotoxic effect by MTT assay, 48 h; conditions: for Percent cytotoxicity wrt control: 48 h
# Protocol: as §3, §4, §5, §6, §7, §8
# KB Cervix = test: Cytotoxic effect by MTT assay, 48 h; conditions: for Percent cytotoxicity wrt control: KB, 48 h
# Protocol: as §3, §4, §5, §6, §7, §8
# MG-63 Bone = test: Cytotoxic effect by MTT assay, 48 h; conditions: for Percent cytotoxicity wrt control: 48 h
# Protocol: as §3, §4, §5, §6, §7, §8
# MDA-MB-231 Breast = test: Cytotoxic effect by MTT assay, 48 h; conditions: for Percent cytotoxicity wrt control: 48 h
# Protocol: as §3, §4, §5, §6, §7, §8
# PA-1 Ovary = test: Cytotoxic effect by MTT assay, 48 h; conditions: for Percent cytotoxicity wrt control: 48 h
# Protocol: as §3, §4, §5, §6, §7, §8
# T24 Bladder = test: Cytotoxic effect by MTT assay, 48 h; conditions: for Percent cytotoxicity wrt control: 48 h
# Protocol: as §3, §4, §5, §6, §7, §8
# HT29 Colon = test: Cytotoxic effect by MTT assay, 48 h; conditions: for Percent cytotoxicity wrt control: 48 h
# Protocol: as §3, §4, §5, §6, §7, §8
# A549 Lungs = test: Cytotoxic effect by MTT assay, 48 h; conditions: for Percent cytotoxicity wrt control: 48 h
# Protocol: as §3, §4, §5, §6, §7, §8
# PA-1 cells = test: Cytotoxicity (cell titer glo, 72 h) ovarian cancer cell line PA-1; assay type: cell-based; conditions: Homo sapiens, PA-1 cell line
# Protocol: as §1
# 5,000 cells/well were plated and incubated at 37° C. overnight. Conjugates/vehicle control dilutions were made in respective media and added to cells. Volume added: 50 uL to each well. […] Each concentration was analysed in triplicates. […] Cell titer glow reagent (volume: 50 uL) was added to each well, the plate was shaken for 5 mins and the luminescence was recorded. […] Percent viability was calculated by dividing the luminescence signal obtained for each treated well by the untreated well (media-only control) and multiplying by 100.
molecule,measurement,setting,value
"CC(=O)N[C@@H]1[C@@H](O[C@@H]2O[C@H](CO)[C@H](O)[C@H](O)[C@H]2O)[C@@H](O)[C@@H](CO)O[C@@H]1O [T antigen, Galβ1-3GalNAcα]",Estimated Kd,[1],0.319 ug/m
same,glycan binding,[1],Main binding motifs
COc1cc2c(cc1OCCCCCOc1cc3c(cc1OC)C(=O)N1C=C(C)C[C@H]1[C@H](O)N3C(=O)OCc1ccc(NC(=O)[C@H](C)NC(=O)[C@@H](NC(=O)CCOCCOCCOCCOCCOCCOCCOCCOCCNC(=O)CCN3C(=O)C=CC3=O)C(C)C)cc1)N=C[C@@H]1CC(C)=CN1C2=O [Tesirine],IC50,[2],145 nM
same,IC50,[3],13.4 nM
same,Percent cytotoxicity wrt control,PBMC Normal; 0.0001 μM,16.9%
same,Percent cytotoxicity wrt control,PBMC Normal; 0.01 μM,40.3%
same,Percent cytotoxicity wrt control,PBMC Normal; 0.1 μM,38.7%
same,Percent cytotoxicity wrt control,PBMC Normal; 1 μM,38.2%
same,IC50,"PBMC Normal; read-out: IC50 Values, PBMC Normal, after 48 h of treatment",5090 nM
same,Percent cytotoxicity wrt control,AGS Stomach; 0.0001 μM,66.4%
same,Percent cytotoxicity wrt control,AGS Stomach; 0.01 μM,77.8%
same,Percent cytotoxicity wrt control,AGS Stomach; 0.1 μM,81.3%
same,Percent cytotoxicity wrt control,AGS Stomach; 1 μM,81.3%
same,Percent cytotoxicity wrt control,AGS Stomach; 10 μM,81.6%
same,Percent cytotoxicity wrt control,U251 MG Brain; 0.001 μM,26.5%
same,Percent cytotoxicity wrt control,U251 MG Brain; 0.01 μM,23.1%
same,Percent cytotoxicity wrt control,U251 MG Brain; 0.1 μM,19.2%
same,Percent cytotoxicity wrt control,U251 MG Brain; 1 μM,27.2%
same,Percent cytotoxicity wrt control,U251 MG Brain; 10 μM,60.5%
same,IC50,"U251 MG Brain; read-out: IC50 Values, U251 MG Brain, after 48 h of treatment",6820 nM
same,Percent cytotoxicity wrt control,"PANC-1 Pancreatic; PANC-1, 0.0001 μM",46.6%
same,Percent cytotoxicity wrt control,"PANC-1 Pancreatic; PANC-1, 0.001 μM",51.1%
same,Percent cytotoxicity wrt control,"PANC-1 Pancreatic; PANC-1, 0.01 μM",58.3%
same,Percent cytotoxicity wrt control,"PANC-1 Pancreatic; PANC-1, 0.1 μM",55%
same,Percent cytotoxicity wrt control,"PANC-1 Pancreatic; PANC-1, 10 μM",71%
same,IC50,"PANC-1 Pancreatic; read-out: IC50 Values, PANC-1 Pancreatic, after 48 h of treatment",0.7 nM
same,Percent cytotoxicity wrt control,KB Cervix; 0.0001 μM,−9.5%
same,Percent cytotoxicity wrt control,KB Cervix; 0.001 μM,1%
same,Percent cytotoxicity wrt control,KB Cervix; 0.01 μM,76.2%
same,Percent cytotoxicity wrt control,KB Cervix; 0.1 μM,93.8%
same,Percent cytotoxicity wrt control,KB Cervix; 1 μM,89.1%
same,Percent cytotoxicity wrt control,KB Cervix; 10 μM,92.7%
same,IC50,"KB Cervix; read-out: IC50 Values, KB Cervix, after 48 h of treatment",6 nM
same,Percent cytotoxicity wrt control,"MG-63 Bone; MG-63, 0.0001 μM",46.6%
same,Percent cytotoxicity wrt control,"MG-63 Bone; MG-63, 0.001 μM",69.4%
same,Percent cytotoxicity wrt control,"MG-63 Bone; MG-63, 0.01 μM",81.2%
same,Percent cytotoxicity wrt control,"MG-63 Bone; MG-63, 1 μM",82.3%
same,IC50,"MG-63 Bone; read-out: IC50 Values, MG-63 Bone, after 48 h of treatment",0.03 nM
same,Percent cytotoxicity wrt control,"MDA-MB-231 Breast; MDA-MB-231, 0.001 μM",41.9%
same,Percent cytotoxicity wrt control,"MDA-MB-231 Breast; MDA-MB-231, 1 μM",69.2%
same,IC50,"MDA-MB-231 Breast; read-out: IC50 Values, MDA-MB-231 Breast, after 48 h of treatment",1.4 nM
same,Percent cytotoxicity wrt control,"PA-1 Ovary; PA-1, 0.001 μM",66.8%
same,Percent cytotoxicity wrt control,"PA-1 Ovary; PA-1, 0.01 μM",79.1%
same,Percent cytotoxicity wrt control,"PA-1 Ovary; PA-1, 1 μM",78.1%
same,Percent cytotoxicity wrt control,"PA-1 Ovary; PA-1, 10 μM",80.5%
same,IC50,"PA-1 Ovary; read-out: IC50 Values, PA-1 Ovary, after 48 h of treatment",0.00599 nM
same,Percent cytotoxicity wrt control,"T24 Bladder; T24, 0.0001 μM",57.5%
same,Percent cytotoxicity wrt control,"T24 Bladder; T24, 0.001 μM",60.6%
same,Percent cytotoxicity wrt control,"T24 Bladder; T24, 0.01 μM",57.5%
same,Percent cytotoxicity wrt control,"T24 Bladder; T24, 0.1 μM",61.4%
same,Percent cytotoxicity wrt control,"T24 Bladder; T24, 1 μM",62.7%
same,Percent cytotoxicity wrt control,"T24 Bladder; T24, 10 μM",80.4%
same,IC50,"T24 Bladder; read-out: IC50 Values, T24 Bladder, after 48 h of treatment",2 nM
same,Percent cytotoxicity wrt control,"HT29 Colon; HT29, 0.0001 μM",37.4%
same,Percent cytotoxicity wrt control,"HT29 Colon; HT29, 0.001 μM",44.5%
same,Percent cytotoxicity wrt control,"HT29 Colon; HT29, 0.01 μM",47.7%
same,Percent cytotoxicity wrt control,"HT29 Colon; HT29, 0.1 μM",48.3%
same,Percent cytotoxicity wrt control,"HT29 Colon; HT29, 1 μM",49%
same,IC50,"HT29 Colon; read-out: IC50 Values, HT29 Colon, after 48 h of treatment",20 nM
same,Percent cytotoxicity wrt control,"A549 Lungs; A549, 0.0001 μM",13.7%
same,Percent cytotoxicity wrt control,"A549 Lungs; A549, 0.1 μM",45.2%
same,Percent cytotoxicity wrt control,"A549 Lungs; A549, 1 μM",53.3%
same,Percent cytotoxicity wrt control,"A549 Lungs; A549, 10 μM",66.7%
same,IC50,"A549 Lungs; read-out: IC50 Values, A549 Lungs, after 48 h of treatment",390 nM
Sialyl T antigen,Estimated Kd,[1],0.670 to 1.756 ug/m
same,glycan binding,[1],Main binding motifs
CC[C@H](C)[C@@H]([C@@H](CC(=O)N1CCC[C@H]1[C@H](OC)[C@@H](C)C(=O)N[C@H](C)[C@@H](O)c1ccccc1)OC)N(C)C(=O)[C@@H](NC(=O)[C@H](C(C)C)N(C)C(=O)OCc1ccc(NC(=O)[C@H](CCCNC(N)=O)NC(=O)[C@@H](NC(=O)CCCCCN2C(=O)C=CC2=O)C(C)C)cc1)C(C)C [mc-vc-PAB-MMAE] ({Hexanoyl(6-maleimido)}-V[Cit][PABC][NMeV]V[Dil][Dolaproine]-X1),IC50,PA-1 cells,647 nM
same,IC50,[3],647 nM
CC(=O)N[C@H]1[C@H](OC[C@H]2OC(O)[C@H](NC(C)=O)[C@@H](O[C@@H]3O[C@H](CO)[C@H](O)[C@H](O)[C@H]3O)[C@H]2O)O[C@H](CO)[C@@H](O)[C@@H]1O (stereo partly shown) [core 2],Estimated Kd,[1],0.212 ug/m
same,glycan binding,[1],Main binding motifs
